In experiment [1] the test system is GLI1, GLI2 mRNA in H2030 NSCLC cells. The experiment is described as follows: GLI mRNA expression in H2030 cells (Q-RT-PCR). It counts as cell-based, human. As to conditions: 5 μM, 72 h. Here is the method:
Total RNA was extracted with the RNeasy Plus Mini Kit from Qiagen (Hilden, Germany) according to the manufacturer’s instructions. One microgram of RNA was reverse-transcribed using an iScript Reverse Transcription Supermix from Bio-Rad Laboratories (Hercules, CA, USA) to make single-stranded cDNA. The cDNAs were then mixed with Qi SYBR Green Supermix (Bio-Rad) for quantitative RT-PCR assay using a Bio-Rad I-cycler IQ quantitative thermocycler. All PCR samples were prepared in triplicate wells in a 96-well plate. After 40 cycles of PCR, melt curves were examined in order to ensure primer specificity. Fold changes in gene expression were calculated using the ΔΔCt method. […]
Figure 6 Inhibition of Glis and SHH expression in Non-Small Cell Lung Cancer (NSCLC) cells. A549 (a) and H2030 (b) cells were treated with Oxy210 in RPMI 1640 containing 5% FBS for 72 h, then RNA was extracted and analyzed by Q-RT-PCR for the expression of the indicated genes and normalized to GAPDH expression. […] After 48 h, RNA was extracted and analyzed by Q-RT-PCR for the expression of Gli1 and Shh and normalized to GAPDH expression. […]

Experiment [2] relates to phosphorylation of Smad2 and Smad3 in A549 cells. The experiment is described as follows: Western blot of TGFβ-induced Smad2/Smad3 phosphorylation. As to conditions: 10 μM pretreatment 3 h, TGFβ 4 ng/mL. It counts as cell-based, human. The method, then: A549 cells were pretreated with DMSO, Oxy186 (10 μM) or Oxy210 (10 μM) for 3 h, then treated with TGFβ (4 ng/mL) for the indicated times. After treatment, the cells were harvested in Triton lysis buffer (1% Triton X-100, 25 mM Tris-HCl, pH 7.4, 300 mM NaCl with protease and phosphatase inhibitors), and the supernatant was collected as cell lysates after centrifugation (15,000× g, 25 min at 4 °C). A Bradford assay was used to measure the protein concentration. […] proteins of each sample were loaded into the wells of an 8% SDS-PAGE gel, and the proteins were transferred to a PVDF membrane after SDS-PAGE gel separation. […] Densitometry readings were performed with ImageJ software (Version 1.52a, NIH, Bethesda, MD, USA, see Supplementary Materials).
Figure 11 Inhibition of TGFβ-induced Smad2/3 phosphorylation and transcriptional activity. […] Luciferase activity was measured and normalized to the Renilla luciferase activity. […]
(In general: In western blotting, separated proteins are transferred to a membrane and probed.)

For the compound `C[C@]12CC[C@H]3[C@@H](CC=C4C[C@@H](O)CC[C@@]43C)[C@@H]1CC[C@@H]2[C@](C)(O)CCc1cccnc1` [Oxy210, (3S,8S,9S,10R,13S,14S,17S)-17-((R)-2-hydroxy-4-(pyridin-3-yl)butan-2-yl)-10,13-dimethyl-2,3,4,7,8,9,10,11,12,13,14,15,16,17-tetradecahydro-1H-cyclopenta[a]phenanthren-3-ol], the “mRNA expression of GLI1 and GLI2” value in experiment [1] was “significantly inhibited”. Further, the “TGFβ-induced phosphorylation of Smad2 and Smad3” value in experiment [2] is given as “robustly inhibited”.

Values taken from PMC6829886, “Inhibition of Non-Small Cell Lung Cancer Cells by Oxy210, an Oxysterol-Derivative that Antagonizes TGFβ and Hedgehog Signaling” (Cells, 2019).
